Laboratory results published in US6743794B2, “Methods and compounds for inhibiting MRP1” (Eli Lilly and Company, priority 1999, dated 2004).

Legend:
[1] = target: T1, MDR1 (Homo sapiens, UniProt P08183); assay: Assay for reversal of MDR1-mediated vincristine resistance (HL60/Vinc cells, alamarBlue viability); format: cell-based; settings: oncolytic alone at the tested concentration, no test compound
T1 construct: HL60/Adr and HL60/Vinc are continuous cell lines, which were selected for doxorubicin and vincristine resistance respectively; endogenous in cells; host or cells: HL60/Vinc (vincristine-selected HL60)
T1 sequence (P08183 whole entry): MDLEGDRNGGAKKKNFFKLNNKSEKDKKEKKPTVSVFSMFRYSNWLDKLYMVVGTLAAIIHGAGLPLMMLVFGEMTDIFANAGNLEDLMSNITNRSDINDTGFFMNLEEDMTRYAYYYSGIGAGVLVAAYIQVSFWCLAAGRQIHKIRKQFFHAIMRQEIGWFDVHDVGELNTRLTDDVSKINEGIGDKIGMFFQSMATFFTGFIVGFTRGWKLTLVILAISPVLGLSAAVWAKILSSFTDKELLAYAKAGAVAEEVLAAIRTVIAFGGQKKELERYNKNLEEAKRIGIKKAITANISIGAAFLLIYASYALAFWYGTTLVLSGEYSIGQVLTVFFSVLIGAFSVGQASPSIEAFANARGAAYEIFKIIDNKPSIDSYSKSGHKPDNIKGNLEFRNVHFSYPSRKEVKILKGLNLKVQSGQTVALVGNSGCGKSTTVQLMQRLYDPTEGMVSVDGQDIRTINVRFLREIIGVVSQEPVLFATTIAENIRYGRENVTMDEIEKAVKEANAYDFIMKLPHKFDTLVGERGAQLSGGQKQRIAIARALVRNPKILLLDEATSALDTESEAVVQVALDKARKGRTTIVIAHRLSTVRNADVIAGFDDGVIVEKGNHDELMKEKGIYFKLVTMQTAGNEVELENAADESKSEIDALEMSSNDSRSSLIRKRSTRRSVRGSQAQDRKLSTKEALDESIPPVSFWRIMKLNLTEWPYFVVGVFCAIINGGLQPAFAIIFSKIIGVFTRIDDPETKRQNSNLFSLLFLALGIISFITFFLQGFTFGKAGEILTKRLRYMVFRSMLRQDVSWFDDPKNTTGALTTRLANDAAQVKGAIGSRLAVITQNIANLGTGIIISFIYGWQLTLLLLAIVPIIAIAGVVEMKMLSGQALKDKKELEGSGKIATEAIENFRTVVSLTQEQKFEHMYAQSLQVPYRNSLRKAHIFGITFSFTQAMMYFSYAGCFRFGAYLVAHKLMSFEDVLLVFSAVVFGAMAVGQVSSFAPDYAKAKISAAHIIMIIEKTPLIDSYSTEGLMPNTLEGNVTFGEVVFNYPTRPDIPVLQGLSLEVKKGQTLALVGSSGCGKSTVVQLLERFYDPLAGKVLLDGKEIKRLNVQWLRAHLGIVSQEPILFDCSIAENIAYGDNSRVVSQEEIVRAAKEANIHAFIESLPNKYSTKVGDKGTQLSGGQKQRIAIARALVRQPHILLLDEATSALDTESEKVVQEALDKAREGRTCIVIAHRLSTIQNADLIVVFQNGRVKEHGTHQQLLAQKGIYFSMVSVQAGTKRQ
Description: (§1) The biological activity of the compounds of the present invention was evaluated employing an initial screening assay which rapidly and accurately measured the activity of the tested compound in inhibiting MRP1 or MDR1. Assays useful for evaluating this reversing capability are well known in the art. See, e.g., T. McGrath, et al., Biochemical Pharmacology, 38:3611, 1989; D. Marquardt and M. S. Center, Cancer Research, 52:3157, 1992; D. Marquardt, et al., Cancer Research, 50:1426, 1990; and Cole, et. al., Cancer Research, 54: 5902-5910, 1994.
(§2) Assay for Reversal of MRP1-Mediated Doxorubicin Resistance and MDR1-Mediated Vincristine Resistance
(§3) HL60/Adr and HL60/Vinc are continuous cell lines, which were selected for doxorubicin and vincristine resistance respectively by culturing HL60, a human acute myeloblastic leukemia cell line, in increasing concentrations of doxorubicin or vincristine until a highly resistant variant was attained.
(§4) HL60/Adr and HL60/Vinc cells were grown in RPMI 1640 (Gibco) containing 10% fetal bovine serum (FBS) and 50 μg/ml GENTAMICIN™ (Sigma). Cells were harvested; washed twice with assay medium (same as culture media); counted; and diluted to 1×10^5 cells/ml in assay medium. One hundred microliters of cells were aliquoted into wells of a 96 well tissue culture plate. […]

[2] = target: T2, MRP1 (Homo sapiens, UniProt P33527); assay: Assay for reversal of MRP1-mediated doxorubicin resistance (HL60/Adr cells, alamarBlue viability); format: cell-based; settings: oncolytic alone at the tested concentration, no test compound
T2 construct: HL60/Adr and HL60/Vinc are continuous cell lines, which were selected for doxorubicin and vincristine resistance respectively; endogenous in cells; host or cells: HL60/Adr (doxorubicin-selected HL60)
T2 sequence (P33527 whole entry): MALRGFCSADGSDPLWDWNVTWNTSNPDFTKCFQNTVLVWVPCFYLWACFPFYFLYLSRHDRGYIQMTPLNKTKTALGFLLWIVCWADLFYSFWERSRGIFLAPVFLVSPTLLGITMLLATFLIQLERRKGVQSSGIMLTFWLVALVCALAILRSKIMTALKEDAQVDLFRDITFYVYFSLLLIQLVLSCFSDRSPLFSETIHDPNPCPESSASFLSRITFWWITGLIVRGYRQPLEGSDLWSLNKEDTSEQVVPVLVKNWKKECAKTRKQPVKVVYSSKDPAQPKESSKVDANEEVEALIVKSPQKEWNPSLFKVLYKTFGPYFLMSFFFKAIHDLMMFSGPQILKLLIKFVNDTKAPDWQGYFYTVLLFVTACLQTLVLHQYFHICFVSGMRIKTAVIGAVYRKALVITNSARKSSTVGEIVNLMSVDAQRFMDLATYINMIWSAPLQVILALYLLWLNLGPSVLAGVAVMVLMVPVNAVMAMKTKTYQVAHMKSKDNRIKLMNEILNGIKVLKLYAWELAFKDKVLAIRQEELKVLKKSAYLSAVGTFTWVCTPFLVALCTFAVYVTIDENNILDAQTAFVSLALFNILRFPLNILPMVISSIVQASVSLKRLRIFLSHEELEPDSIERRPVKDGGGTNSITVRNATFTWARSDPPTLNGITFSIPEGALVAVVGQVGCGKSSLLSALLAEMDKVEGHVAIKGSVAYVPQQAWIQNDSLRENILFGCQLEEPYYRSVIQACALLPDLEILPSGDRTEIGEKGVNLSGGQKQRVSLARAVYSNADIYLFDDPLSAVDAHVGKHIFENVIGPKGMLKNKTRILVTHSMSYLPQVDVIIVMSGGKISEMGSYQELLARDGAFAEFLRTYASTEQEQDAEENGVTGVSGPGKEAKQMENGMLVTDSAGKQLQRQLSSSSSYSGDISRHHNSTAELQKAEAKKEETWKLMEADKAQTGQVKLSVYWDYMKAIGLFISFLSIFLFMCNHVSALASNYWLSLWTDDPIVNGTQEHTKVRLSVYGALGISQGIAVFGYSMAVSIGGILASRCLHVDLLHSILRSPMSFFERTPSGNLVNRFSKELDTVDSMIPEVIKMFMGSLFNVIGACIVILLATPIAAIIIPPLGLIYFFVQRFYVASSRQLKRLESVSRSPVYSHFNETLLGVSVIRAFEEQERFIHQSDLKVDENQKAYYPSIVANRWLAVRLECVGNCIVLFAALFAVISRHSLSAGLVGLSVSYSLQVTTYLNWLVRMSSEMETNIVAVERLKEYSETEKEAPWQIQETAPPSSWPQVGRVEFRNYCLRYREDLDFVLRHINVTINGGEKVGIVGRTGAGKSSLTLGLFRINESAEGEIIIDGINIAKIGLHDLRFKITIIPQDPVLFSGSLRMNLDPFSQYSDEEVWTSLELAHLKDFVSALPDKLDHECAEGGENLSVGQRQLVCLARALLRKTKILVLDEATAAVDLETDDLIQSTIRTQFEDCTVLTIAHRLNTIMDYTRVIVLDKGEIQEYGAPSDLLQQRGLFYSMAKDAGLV
Description: as §1, §2, §3, §4

Compound: COc1cccc2c1C(=O)c1c(O)c3c(c(O)c1C2=O)C[C@@](O)(C(=O)CO)C[C@@H]3O[C@H]1C[C@H](N)[C@H](O)[C@H](C)O1 [doxorubicin]
- inhibition of cell growth by the oncolytic alone [1]: minimally inhibits
- inhibition of cell growth by the oncolytic alone [2]: minimally inhibits
